Data as given in patent publication US8557733B2, “Composition for regenerating and stimulating growth of plants and for adapting plants to different stress factors” (Mitotech S.A., priority 2006, dated 2013).
Entries after “also recorded” stand apart in the source; their conditions may differ.

How the values were obtained:
maize callus cultures = conditions: added to nutrient medium for callus initiation; cited from earlier work
rice seeds = assay: Germination of rice seeds under water (anaerobic conditions); type: in vivo
Protocol: Effect of SkQ1 on germination of rice seeds under water (under anaerobic conditions) was studied. SkQ1 was added to water at concentrations of 0, 1, 3, 10, 30 nM.

tobacco leaf explants = assay: Callus formation (dedifferentiation) and root formation in tobacco leaf explants; type: cell-based; conditions: 0.6 μM SkQ1
Protocol: Effect of SkQ1 on callus formation (dedifferentiation) in tobacco leaf explants was investigated. Sterile leaf disks of plants Nicotiana tabacum cv Samsun were sliced with approximately 1 cm^2 size. The resulting explants were placed at standard MS medium for callus formation supplemented with phytohormones 0.5 mg/L 6-benzylaminopurine and 1 mg/L naphthylacetic acid. Test Petri plates were also supplemented with 0.6 μM SkQ1. Explants were cultivated in darkness for 5 weeks. During incubation callus was initially formed at wound explant surfaces.

sugar cane calli [1] = assay: Survival of sugar cane calli after anaerobic stress; type: cell-based; conditions: 48 hours anoxic, then aerobic medium with 10 nM SkQ1
Protocol: Effect of SkQ1 on survival of sugar cane calli following anaerobic stress was assessed. For this purpose, sugar cane calli were incubated for 48 hours under anoxic conditions and then were transferred under aerobic conditions at a nutrient medium containing 10 nM SkQ1or no SkQ1 (control).

maize callus = assay: Morphogenetic processes in maize callus; type: cell-based
Protocol: (§1) In this work, calli and explants of tobacco, sugar cane, maize, lucerne, potato and tomatoes were used. Calli were incubated at Petri dishes containing agarized Murashige-Skoog medium with […] and 1 mg/L 2,4-dichlorophenoxyacetic acid. The cultivation was carried out at temperature 26° C., illumination intensity of 2 cd and the length of daylight of 16 hours. SkQ1 was added to autoclaved and cooled (up to 45° C.) nutrient medium immediately before callus planting. SkQ1 at concentrations of 0, 1.5, 5, 10, 20, 30 and 50 nM was used. Increase of callus green weight, a fraction of calli with shoots and roots and an average number of organs per a morphogenetic callus were taken into account after one month of cultivation.
Dose-dependent effect of SkQ1 on morphogenetic processes in maize callus was shown. […] Variations in green weight resulted mainly from amount of formed roots.

leaf potato explants = assay: Formation of shoots and roots from leaf potato explants; type: cell-based; conditions: 10 nM SkQ1, 10 days
Protocol: (§2) Effect of SkQ1 on formation shoots and roots from leaf potato explants and stem tomato explants was investigated. Explants were incubated for 10 days in the presence of 10 nM SkQ1 or with no SkQ1.

sugar cane calli [2] = assay: Shoot formation and plant regeneration from sugar cane calli; type: cell-based
Protocol: as §1
At the same time, development of shoots of calli transferred onto regeneration medium from medium without SkQ1 has been at the very initial stage.
To produce normal plants, sugar cane shoots formed by 10 nM SkQ1 were transferred onto rootage agarized medium containing the same optimum SkQ1 concentration (10 nM). After root formation, the plants were transferred into water medium and then displanted into the ground. Estimation of the plant state was performed at every stage.

Lucerne calli = assay: Callus growth and regeneration ability of lucerne calli; type: cell-based
Protocol: as §1
Lucerne calli were cultivated for 1 month in the presence of different SkQ1 concentrations (0-10 nM). Effect of SkQ1 on callus growth (weight change) and regeneration ability (formation of calli with “green areas”) were assessed.

stem tomato explants = assay: Formation of shoots and roots from stem tomato explants; type: cell-based; conditions: 10 nM SkQ1, 10 days
Protocol: as §2

isolated embryos = conditions: micromolar concentration; wheat; cited from earlier work
maize embryogenic callus = conditions: cited from earlier work
wheat tussue culture = conditions: wheat tissue culture; cited from earlier work
[3] = 1-10 nM SkQ1, one month of cultivation

For `NC1(C(=O)O)CC1` [1-aminocyclopropane-1-carboxylic acid], which “decrease of a number of produced regenerants” value (maize callus cultures) is on record?
The value was 68%.

And the “frequency of embryogenic callus formation” value (maize callus cultures)?
Its value is “significant reduction”.

What does the source list for `CC1=C(C)C(=O)C(CCCCCCCCCC[P+](c2ccccc2)(c2ccccc2)c2ccccc2)=CC1=O.[Br-]` [SkQ1]?
germination of rice seeds under water (rice seeds; 1 nM SkQ1 in water): enhance significantly germination; also recorded: dramatically enhances germination; germination of rice seeds under water (rice seeds; SkQ1 at concentrations higher than 1 nM (3, 10, 30 nM)): does not reveal such a stimulating effect; root formation from callus tissues (tobacco leaf explants; darkness, 5 weeks, controls showed no root formation): secondary differentiation of callus tissues with root formation; also recorded: stimulates root formation; state of differentiated explant tissues on further incubation (tobacco leaf explants; newly formed root tissues did well): necrotized and died; capability for morphogenesis after anaerobic stress (sugar cane calli [1]): retain capability for morphogenesis; survival of calli following anaerobic stress (sugar cane calli [1]): markedly higher capability for survival; also recorded: enhances resistance; callus accretion (green weight) (maize callus; 0-50 nM SkQ1): did not affect essentially callus accretion; amount of rhizogenic calli (maize callus; 1-10 nM SkQ1): No reliable increase; average number of roots per callus (maize callus; 1-10 nM SkQ1): increased significantly; average number of shoots per callus (maize callus; [3]): increase of an average number of shoots per callus; inoculum fraction that forms shoots (maize callus; [3]): increase of inoculum fraction that forms shoots; morphogenesis (maize callus; SkQ1 at 20 nM and higher, shoot formation affected more than rhizogenesis): inhibited morphogenesis; growth oppression (maize callus; high SkQ1 concentrations): No reliable growth oppression; rhizogenesis on repeated callus cultivation (maize callus; repeated cultivation, same medium composition): even more pronounced amplification of rhizogenesis; formation of shoots and roots (leaf potato explants): significantly enhances formation of both shoots and roots; onset of formation of shoots from calli (sugar cane calli [2]; 10 nM SkQ1, control calli showed no shoot formation): 19 day of incubation; rooting of shoots and production of plants (sugar cane calli [2]; 10 nM SkQ1, rootage medium, then water medium and ground): take roots properly and give normal viable plants; development of formed shoots on agarized regeneration medium (sugar cane calli [2]; 10 nM SkQ1 in regeneration medium): continued to develop normally; development of shoots on regeneration medium (sugar cane calli [2]; 100 nM SkQ1 in regeneration medium): termination of further development of shoots; development of shoots on regeneration medium (sugar cane calli [2]; 1000 nM SkQ1 in regeneration medium): destruction of shoots; shoot formation from undifferentiated tissue of sugar cane (sugar cane calli [2]; FIG. 1): stimulates shoot formation; viability of shoots (sugar cane calli [2]; formed and further cultivated at 100 nM or 1000 nM SkQ1): nonviable and died; onset of shoot formation from calli (sugar cane calli [2]; higher SkQ1 concentrations (above 10 nM)): > 31 days; amount of calli with shoot formation (sugar cane calli [2]; higher SkQ1 concentrations, compared with 10 nM): in lesser amount of calli; callus growth (weight change) (Lucerne calli; 0-10 nM SkQ1, 1 month): does not affect significantly callus growth; stimulation of regeneration (formation of calli with green areas) (Lucerne calli; 5 nM SkQ1, 1 month): 2.5-3 fold; stimulation of regeneration (Lucerne calli; SkQ1 concentrations higher than 5 nM): positive effect eliminates; formation of shoots and roots (stem tomato explants): significantly enhances formation of both shoots and roots

With `CC1=CC(=O)CC(C)(C)[C@@]1(O)/C=C/C(C)=C\C(=O)O` [abscisic acid] as the compound, how does the embryogenic callus formation (isolated embryos) read?
The embryogenic callus formation was “stimulated embryogenic callus formation”.

With `C1=CC2C=CC1C2` [norbornadiene] as the compound, how does the “frequency of embryogenic callus formation” value (maize callus cultures) read?
The value was “stimulated embryogenic callus formation”.

Which “number of regenerants per explant” value (maize embryogenic callus; 20 mM proline, 2.8 without) does the source give for `O=C(O)[C@@H]1CCCN1` [proline] here?
The value was 7.6.

And the “increase of frequency of embryogenic callus formation and plant regeneration” value (maize embryogenic callus; 400 mg/L proline in medium)?
Its value is 2-3 fold.

With `O=[N+]([O-])[O-].[Ag+]` [silver nitrate] as the compound, how does the “frequency of embryogenic callus formation” value (maize callus cultures) read?
Its value is “stimulated embryogenic callus formation”.

Which enhancement of morphogenesis (wheat tussue culture) does the source give for xyloglucan pentasaccharide here?
The enhancement of morphogenesis was 1.5-2 fold.
